{"source": "paper PMC3726061", "about": "(Journal of pharmaceutical and biomedical analysis, 2012)", "key": {"σ1 receptors [1]": {"biological_target": "T1, σ1 receptors (Rattus norvegicus, UniProt Q9R0C9)", "T1 sequence (Q9R0C9 whole entry)": "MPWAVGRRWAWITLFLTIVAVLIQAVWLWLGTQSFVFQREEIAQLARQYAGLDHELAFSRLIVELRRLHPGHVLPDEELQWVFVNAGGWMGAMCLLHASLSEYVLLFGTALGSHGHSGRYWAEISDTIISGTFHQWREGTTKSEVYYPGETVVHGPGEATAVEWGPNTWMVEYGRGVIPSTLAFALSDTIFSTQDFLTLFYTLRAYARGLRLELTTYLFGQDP", "conditions": "read-out: Ki at σ1 (nM) Experimental Brain/Brandel; rat brain P2, 5 nM [3H](+)-pentazocine, cell harvester"}, "σ1 [2]": {"biological_target": "σ1", "conditions": "read-out: Ki at σ1 (nM) Literature, cited from earlier work"}, "σ2 [3]": {"biological_target": "σ2", "conditions": "read-out: Ki at σ2 (nM) Literature, cited from earlier work"}, "σ2 receptors [4]": {"biological_target": "T2, σ2 receptors (Rattus norvegicus, UniProt Q5U3Y7)", "T2 sequence (Q5U3Y7 1-176)": "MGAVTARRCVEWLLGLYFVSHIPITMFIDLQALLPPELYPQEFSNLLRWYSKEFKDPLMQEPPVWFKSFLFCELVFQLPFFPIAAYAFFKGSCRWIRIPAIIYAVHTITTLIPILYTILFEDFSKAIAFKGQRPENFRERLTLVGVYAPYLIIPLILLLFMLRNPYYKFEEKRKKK", "test": "σ2 competition binding, [3H]DTG with"}, "σ2 receptors [5]": {"biological_target": "T2, σ2 receptors", "test": "σ2 competition binding, [3H]DTG with", "remark": "listed apart in the source"}, "σ1 receptors [6]": {"biological_target": "T1, σ1 receptors", "test": "σ1 competition binding, [3H]"}, "σ1 [7]": {"biological_target": "σ1", "conditions": "cited from earlier work"}, "σ1 receptors [8]": {"biological_target": "T1, σ1 receptors", "test": "biochemical"}, "σ2 [9]": {"system": "σ2", "conditions": "read-out: Ki at σ2 (nM) Literature (reported value is IC50); Guinea-pig brain; ref Chaki, 1994; cited from earlier work"}, "σ1 [10]": {"biological_target": "σ1", "conditions": "read-out: Ki at σ1 (nM) Literature, footnote not given, cited from earlier work"}, "σ2 [11]": {"biological_target": "σ2", "conditions": "read-out: Ki at σ2 (nM) Literature, footnote not given, cited from earlier work"}, "[12]": {"conditions": "Rat brain P2 with 5 nM [3H](+)-pentazocine, ref Bowen, 1993"}, "[13]": {"conditions": "Rat brain P2, 3 nM [3H]DTG with 1 μM dextrallorphan, ref Bowen, 1993"}, "[14]": {"conditions": "read-out: Ki at σ2 (nM) Experimental Brain/Brandel, rat brain P2, 3 nM [3H]DTG with 300 nM (+)-pentazocine, cell harvester"}}, "note": "Structures can show the parent of a compound that is named as a salt. Where two headings read alike, the source gives them in different places.", "data": [{"molecule": "C=CCN1CCC2(C)c3cc(O)ccc3CC1C2C", "note": "(single isomer, unassigned; (+)) [(+)-SKF10, 047, (+)-N-allylnormetazocine hydrochloride]", "values": [{"measurement": "Ki", "setting": "σ1 receptors [1]", "value": "287 ± 36", "unit": "nM"}, {"measurement": "Ki", "setting": "σ1 [2]; [12]", "value": "28.7 ± 2.8", "unit": "nM"}, {"measurement": "Ki", "setting": "σ2 [3]; [13]", "value": 33700, "unit": "nM"}]}, {"molecule": "CC(C)=CCN1CCC2(C)c3cc(O)ccc3CC1C2C", "note": "(single isomer, unassigned; (-)) [(−)-pentazocine]", "values": [{"measurement": "Ki", "setting": "σ2 receptors [4]; [14]", "value": "[…]"}, {"measurement": "Ki", "setting": "σ1 [2]; [12]", "value": "[…]"}, {"measurement": "Ki", "setting": "σ2 [3]; [13]", "value": "[…]"}]}, {"molecule": "CC(C)=CCN1CC[C@]2(C)c3cc(O)ccc3C[C@H]1[C@H]2C", "note": "[(+)-pentazocine, (+)-Pentazocine]", "values": [{"measurement": "Ki", "setting": "σ2 receptors [4]", "value": "1410 ± 207", "unit": "nM"}, {"measurement": "Ki", "setting": "σ2 receptors [5]", "value": "1070 ± 94", "unit": "nM"}, {"measurement": "Ki", "setting": "σ1 [2]; [12]", "value": "[…]"}, {"measurement": "Ki", "setting": "σ2 [3]; [13]", "value": "1360 ± 134", "unit": "nM"}]}, {"molecule": "c1ccc(CCN2CCCCC2)cc1", "note": "[AC927, N-phenethylpiperidine oxalate]", "values": [{"measurement": "Ki", "setting": "σ2 receptors [4]; [14]", "value": "384 ± 34", "unit": "nM"}, {"measurement": "Ki", "setting": "σ1 receptors [1]", "value": "61.2 ± 5.6", "unit": "nM"}, {"measurement": "Ki", "setting": "σ1 [2]; Rat brain P2 with 3 nM [3H](+)-pentazocine, ref Matsumoto, 2008", "value": "30 ± 2", "unit": "nM"}, {"measurement": "Ki", "setting": "σ2 [3]; Rat brain P2, 3 nM [3H]DTG with 300 nM (+)-pentazocine, ref Matsumoto, 2008", "value": "138 ± 18", "unit": "nM"}]}, {"molecule": "CN1CCN(CCc2ccc(Cl)c(Cl)c2)CC1", "note": "[BD1063, 1-[2-(3,4-dichlorophenyl)ethyl]-4-methylpiperazine dihydrochloride]", "values": [{"measurement": "Ki", "setting": "σ1 receptors [6]", "value": "33.4 ± 4.1", "unit": "nM"}, {"measurement": "Ki", "setting": "σ1 [7]; read-out: Ki at σ1 (nM) Literature, Guinea-pig brain P2 with 3 nM [3H](+)-pentazocine, ref Matsumoto, 1995", "value": "9.15 ± 1.28", "unit": "nM"}, {"measurement": "Ki", "setting": "σ1 receptors [8]", "value": "15 ± 2.1", "unit": "nM"}]}, {"molecule": "CCCN(CCC)CCc1ccc(OC)c(OCCc2ccccc2)c1", "note": "[NE100, 4-methoxy-3-(2-phenylethoxy)-N,N-dipropylbenzeneethanamine hydrochloride]", "values": [{"measurement": "Ki", "setting": "σ1 receptors [6]", "value": "2 ± 0.5", "unit": "nM"}, {"measurement": "Ki", "setting": "σ2 receptors [4]", "value": "95.5 ± 1", "unit": "nM"}, {"measurement": "Ki", "setting": "σ2 receptors [5]", "value": "36.2 ± 1.1", "unit": "nM"}, {"measurement": "IC50", "setting": "σ1 [7]; read-out: Ki at σ1 (nM) Literature (reported value is IC50), Guinea-pig brain, ref Chaki, 1994", "value": "1.54 ± 0.26", "unit": "nM"}, {"measurement": "IC50", "setting": "σ2 [9]", "value": "84.6 ± 32.9", "unit": "nM"}, {"measurement": "Ki", "setting": "σ1 receptors [8]", "value": "2.8 ± 0.5", "unit": "nM"}]}, {"molecule": "CCCc1ccc2c(c1)sc(=O)n2CCN1CCCCCC1", "note": "[SN56, 3-(2-(azepan-l-yl)ethyl)-6-propylbenzo[d]thiazol-2(3H)-one]", "values": [{"measurement": "Ki", "setting": "σ1 receptors [6]; read-out: Ki (nM) σ1, Table 2, 96-well filtration method, rat liver P2, 5 nM [3H](+)-pentazocine", "value": "1.6 ± 0.1", "unit": "nM"}, {"measurement": "Ki σ2/Ki σ1", "setting": "σ1 receptors [6]; selectivity ratio for σ1 versus σ2, 96-well method", "value": 168}, {"measurement": "Ki", "setting": "σ2 receptors [4]; [14]", "value": "627 ± 115", "unit": "nM"}, {"measurement": "Ki", "setting": "σ1 receptors [1]", "value": "1.7 ± 0.1", "unit": "nM"}, {"measurement": "Ki", "setting": "σ1 [10]; ref h", "value": 0.56, "unit": "nM"}, {"measurement": "Ki", "setting": "σ2 [11]; ref h", "value": "> 1000", "unit": "nM"}]}, {"molecule": "COc1ccc2c(c1)[C@]13CCCC[C@@H]1[C@H](C2)N(C)CC3", "note": "[dextromethorphan, dextromethorphan hydrobromide]", "values": [{"measurement": "Ki", "setting": "σ1 receptors [6]", "value": "214 ± 15", "unit": "nM"}, {"measurement": "Ki", "setting": "σ2 receptors [4]", "value": "> 10000", "unit": "nM"}, {"measurement": "Ki", "setting": "σ2 receptors [5]", "value": "> 10000", "unit": "nM"}, {"measurement": "Ki", "setting": "σ1 [10]; ref g", "value": "652 ± 33", "unit": "nM"}, {"measurement": "Ki", "setting": "σ1 receptors [8]", "value": "403 ± 22", "unit": "nM"}]}, {"molecule": "COCCCC/C(=N\\OCCN)c1ccc(C(F)(F)F)cc1", "note": "[fluvoxamine, fluvoxamine maleate]", "values": [{"measurement": "Ki", "setting": "σ1 [10]; ref e", "value": 36, "unit": "nM"}, {"measurement": "Ki", "setting": "σ2 [11]; ref e", "value": 8440, "unit": "nM"}]}, {"molecule": "CC(=O)[C@H]1CC[C@H]2[C@@H]3CCC4=CC(=O)CC[C@]4(C)[C@H]3CC[C@]12C", "note": "[progesterone]", "values": [{"measurement": "Ki", "setting": "σ1 receptors [6]", "value": "99.7 ± 3.1", "unit": "nM"}, {"measurement": "Ki", "setting": "σ2 receptors [4]", "value": "> 10000", "unit": "nM"}, {"measurement": "Ki", "setting": "σ2 receptors [5]", "value": "> 10000", "unit": "nM"}, {"measurement": "Ki", "setting": "σ1 [10]; ref f", "value": "338 ± 8", "unit": "nM"}, {"measurement": "Ki", "setting": "σ1 receptors [8]", "value": "234 ± 4.4", "unit": "nM"}]}, {"molecule": "C[C@@H]1CN(CCCn2c3ccccc3c3ccccc32)C[C@H](C)N1", "note": "[rimcazole, rimcazole dihydrochloride monohydrate]", "values": [{"measurement": "Ki", "setting": "σ2 receptors [4]", "value": "1570 ± 154", "unit": "nM"}, {"measurement": "Ki", "setting": "σ2 receptors [5]", "value": "719 ± 72", "unit": "nM"}, {"measurement": "Ki", "setting": "σ1 [10]; ref g", "value": "867 ± 185", "unit": "nM"}]}]}
